Experimental data taken from patent US20070148710A1, “Cpt resistant cell line” (priority 2003, published 2007).
Values after ≈ are worked out from the molar mass of the structure shown. Where two headings read alike, the source gives them in different places.

Experiments:
[1] = system: SW948 human colon cancer xenografts; assay: tumor xenograft growth; format: in vivo, Balb/c athymic nude mice; conditions: initial study: Erbitux 1 mg i.p. every 3 days, CPT-11 40 mg/kg i.v. every 6 days, 3 Gy radiation (FIG. 11); n=7
Experimental: 15. […] Erbitux® (1 mg) was administered i.p. every 3 days for 5 weeks beginning on day 22 after tumor cell injection. […] Mean change in tumor size relative to size on day 22 (n=7 mice/group) is shown. At the time of Erbitux® administration (day 22), the mean±SD size of the tumors were 71.8±39.8 mm^2.
16. […] Erbitux® (1 mg) was administered i.p. 2 times a week for 3 weeks (days 24, 27, 31, 34, 38, and 41) beginning on day 24 after tumor cell injection. […] Mean change in tumor size relative to size on day 24 (n=7 mice/group). At the time of Erbitux® administration (day 24), the mean±SD size of the tumors were 58.0±29.3 mm^2.
91. Additional studies against SW948 colon cancer cells have been carried out in vitro and with SW948 tumor xenografts. […] FIG. 10 illustrates the induction of apoptosis in SW948 cells in vitro following treatment with these agents. […] This experiment was run concurrently with a third experiment in which SW948CPTH cells were used in the xenograft (FIG. 13).
92. Balb/c athymic nude mice were injected subcutaneously with 2×10^7 SW948 or SW948CPTH cells. […] Change in average tumor size measured with calipers (surface area equal to product of two largest diameters) for each group relative to the size on day 24 was determined. […] Change in average tumor size relative to day 22 was monitored as described above for SW948 tumors.

SW948CPTL cells = assay: clonogenic assay, CPT-11 IC50; format: cell-based; conditions: Homo sapiens, read-out: CPT-11 IC50
Experimental: 8. […] IC50 was determined using a clonogenic assay.

[2] = system: SW948 colon carcinoma cells; assay: induction of early apoptosis (annexin V-FITC / propidium iodide, FACS); format: cell-based, human; conditions: SW948 in vitro, 4 days post-treatment (FIG. 10)
Text: 14. […] Floating and adherent cells were collected 4 days post-treatment. The treatments are described in the legend for FIG. 8. The cells were stained with annexin V-FITC and propidium iodide, then analyzed by FACS using CellQuest software (Beckton-Dickenson, San Diego, Calif.). Data points are the average±SEM of a representative experiment done in triplicate.

SW948 = assay: cell proliferation assay, cross-resistance to topoisomerase I and II inhibitors; format: cell-based, human; conditions: Homo sapiens; SW948 parental; mean ± SD, 2-4 independent assays; read-out: Sensitivity expressed as IC50
Text: (§1) Drug resistance to other topoisomerase I and II inhibitors was examined by determining the IC50 dose of each drug using a cell proliferation assay as shown in Table 3.

SW948CPTH = assay: as above; format: cell-based, human
Text: as §1

SW948 cells = assay: cell cycle analysis; format: cell-based, human
[3] = system: SW948CPTH cell lines recovered from xenografts; assay: clonogenic assay on cell lines recovered from tumor xenografts; format: cell-based; conditions: Homo sapiens, cultured 2-4 weeks CPT-11-free
SW948CPTH cells [4] = assay: cell cycle analysis; format: cell-based, human
SW948CPTH cells [5] = assay: clonogenic assay, CPT-11 IC50; format: cell-based; conditions: Homo sapiens
Experimental: 7. […] IC50 was determined using a clonogenic assay.
Ten days later, the surviving fraction of the SW948 and SW948CPTH cells was determined.
The cells were then washed, fresh medium added, and plated for colony formation.

[6] = SW948 parent cell line, dose dependent

What does the source list for CCc1c2c(nc3ccc(OC(=O)N4CCC(N5CCCCC5)CC4)cc13)-c1cc3c(c(=O)n1C2)COC(=O)[C@]3(O)CC [CPT-11, Irinotecan]?
complete regressions [1]: 0/7; IC50 (SW948CPTL cells; 168 h): 4.8 µg/mL (≈ 8.18 µM); IC50 (SW948CPTL cells; 600 h): 12.9 µg/mL (≈ 22 µM); IC50 (SW948CPTL cells): 16 µg/mL (≈ 27.3 µM); induction of apoptosis [2]: high level of apoptosis; IC50 (SW948): 3 ± 0.4 µg/mL (≈ 5.11 µM); IC50 (SW948CPTH; Homo sapiens, read-out: Sensitivity expressed as IC50): 43.7 ± 8.6 µg/mL (≈ 74.5 µM); change in resistance of SW948CPTH cells compared to the parental cell line SW948 (SW948CPTH; IC50 by cell proliferation assay (Table 3)): increased resistance; G0-G1(%) (SW948 cells; SW948, CPT-11 1 μg/ml): 36.0 ± 3.2%; S(%) (SW948 cells; SW948, CPT-11 1 μg/ml): 39.6 ± 3.8%; G0-G1(%) (SW948 cells; SW948, CPT-11 2 μg/ml): 22.1 ± 2.0%; G2-M(%) (SW948 cells; SW948, CPT-11 2 μg/ml): 35.8 ± 5.1%; S(%) (SW948 cells; SW948, CPT-11 2 μg/ml): 42.1 ± 6.7%; G0-G1(%) (SW948 cells; SW948, CPT-11 5 μg/ml): 17.0 ± 1.9%; G2-M(%) (SW948 cells; SW948, CPT-11 5 μg/ml): 41.0 ± 2.5%; S(%) (SW948 cells; SW948, CPT-11 5 μg/ml): 42 ± 2.5%; change of S phase (SW948 cells; SW948 parent cell line): No obvious changes; change of percentage of cells in the G0-G1 phase (SW948 cells; [6]): decreased; change of percentage of cells in the G2-M phase (SW948 cells; [6]): increased; IC50 ([3]; read-out: CPT-11 IC50 Dose, SW948CPTH xenograft #16 (CPT-11 treated tumor), 134 days after implant): 24.7 µg/mL (≈ 42.1 µM); IC50 ([3]; read-out: CPT-11 IC50 Dose, SW948CPTH xenograft #51 (untreated tumor), 121 days after implant): 18 µg/mL (≈ 30.7 µM); IC50 ([3]; read-out: CPT-11 IC50 Dose, SW948CPTH xenograft #53 (untreated tumor), 124 days after implant): 32.2 µg/mL (≈ 54.9 µM); IC50 ([3]; read-out: CPT-11 IC50 Dose, SW948CPTH xenograft #54 (untreated tumor), 103 days after implant): 25.1 µg/mL (≈ 42.8 µM); G0-G1(%) (SW948CPTH cells [4]; CPT-11 1 μg/ml): 45.7 ± 6.2%; G2-M(%) (SW948CPTH cells [4]; CPT-11 1 μg/ml): 8.3 ± 3.1%; S(%) (SW948CPTH cells [4]; CPT-11 1 μg/ml): 46 ± 7.5%; G0-G1(%) (SW948CPTH cells [4]; CPT-11 2 μg/ml): 44.6 ± 3.8%; G2-M(%) (SW948CPTH cells [4]; CPT-11 2 μg/ml): 8.9 ± 1.9%; S(%) (SW948CPTH cells [4]; CPT-11 2 μg/ml): 46.5 ± 3.9%; G0-G1(%) (SW948CPTH cells [4]; CPT-11 5 μg/ml): 45.0 ± 3.0%; G2-M(%) (SW948CPTH cells [4]; CPT-11 5 μg/ml): 12.2 ± 2.3%; S(%) (SW948CPTH cells [4]; CPT-11 5 μg/ml): 42.8 ± 4.9%; change of cell cycle (SW948CPTH cells [4]; similar amount of CPT-11): did not cause any change; IC50 (SW948CPTH cells [5]; 192 h, read-out: CPT-11 IC50, SW948CPTH exposed to 80 μg/ml CPT-11, 8 days when assayed, tested in presence of CPT-11): 79 µg/mL; IC50 (SW948CPTH cells [5]; 336 h, read-out: CPT-11 IC50, SW948CPTH exposed to 8 μg/ml CPT-11, 14 days when assayed, tested in presence of CPT-11): 18.2 µg/mL; IC50 (SW948CPTH cells [5]; 480 h, read-out: CPT-11 IC50, SW948CPTH exposed to 8 μg/ml CPT-11, 20 days when assayed, tested in presence of CPT-11): 15.6 µg/mL; IC50 (SW948CPTH cells [5]; 480 h, read-out: CPT-11 IC50, SW948CPTH exposed to 30 μg/ml CPT-11, 20 days when assayed, tested in presence of CPT-11): 18 µg/mL; IC50 (SW948CPTH cells [5]; 552 h, read-out: CPT-11 IC50, SW948CPTH exposed to 10 μg/ml CPT-11, 23 days when assayed, tested in presence of CPT-11): 21.3 µg/mL; IC50 (SW948CPTH cells [5]; 600 h, read-out: CPT-11 IC50, SW948CPTH exposed to 20 μg/ml CPT-11, 25 days when assayed, tested in presence of CPT-11): 23.6 µg/mL; IC50 (SW948CPTH cells [5]; […], read-out: CPT-11 IC50, SW948CPTH exposed to 30 μg/ml CPT-11, 19 days when assayed, tested in presence of CPT-11): 21.3 µg/mL; IC50 (SW948CPTH cells [5]; read-out: CPT-11 IC50, SW948CPTH exposed to 20 μg/ml CPT-11, 30 days when assayed, tested in presence of CPT-11): 18.2 µg/mL; IC50 (SW948CPTH cells [5]; read-out: CPT-11 IC50, SW948CPTH exposed to 20 μg/ml CPT-11, 51 days when assayed, tested in presence of CPT-11): 24 µg/mL; IC50 (SW948CPTH cells [5]; read-out: CPT-11 IC50, SW948CPTH exposed to 20 μg/ml CPT-11, 60 days, CPT-11 withdrawn for 33 days prior to IC50 determination): 19 µg/mL (≈ 32.4 µM); IC50 (SW948CPTH cells [5]; read-out: CPT-11 IC50, SW948CPTH exposed to 20 μg/ml CPT-11, 65 days when assayed, tested in presence of CPT-11): 34 µg/mL; IC50 (SW948CPTH cells [5]; read-out: CPT-11 IC50, SW948CPTH exposed to 30 μg/ml CPT-11, 47 days when assayed, tested in presence of CPT-11): 19 µg/mL; IC50 (SW948CPTH cells [5]; read-out: CPT-11 IC50, SW948CPTH exposed to 40 μg/ml CPT-11, 30 days when assayed, tested in presence of CPT-11): 55 µg/mL; IC50 (SW948CPTH cells [5]; read-out: CPT-11 IC50 Dose, SW948CPTH treated 20 μg/ml CPT-11 62 days, 5 days after removal of CPT-11): 25 µg/mL (≈ 42.6 µM); IC50 (SW948CPTH cells [5]; read-out: CPT-11 IC50 Dose, SW948CPTH treated 20 μg/ml CPT-11 62 days, 21 days after removal of CPT-11): 18.9 µg/mL (≈ 32.2 µM); IC50 (SW948CPTH cells [5]; read-out: CPT-11 IC50 Dose, SW948CPTH treated 20 μg/ml CPT-11 62 days, 40 days after removal of CPT-11): 19 µg/mL (≈ 32.4 µM); IC50 (SW948CPTH cells [5]; read-out: CPT-11 IC50 Dose, SW948CPTH treated 20 μg/ml CPT-11 62 days, 45 days after removal of CPT-11): 19.2 µg/mL (≈ 32.7 µM); IC50 (SW948CPTH cells [5]; read-out: CPT-11 IC50 Dose, SW948CPTH treated 20 μg/ml CPT-11 62 days, 68 days after removal of CPT-11): 11.4 µg/mL (≈ 19.4 µM); IC50 (SW948CPTH cells [5]; read-out: CPT-11 IC50 Dose, SW948CPTH treated 20 μg/ml CPT-11 62 days, 89 days after removal of CPT-11): 13.4 µg/mL (≈ 22.8 µM)
